Drawing on patent US12516056B2, “Compounds for inhibition of janus kinase 1” (MANKIND PHARMA LTD., priority 2019, dated 2026), this text covers IC50 for 15 compounds.

Structures can show the parent of a compound that is named as a salt. Where two headings read alike, the source gives them in different places.

One assay has as its target T1, Recombinant JAK2 (Homo sapiens, UniProt O60674).
T1 construct: purchased Carna Biosciences
The assay is described as follows: JAK biochemical assay (LANCE Ultra TR-FRET), JAK2. The following applies: recombinant JAK2, TR-FRET; read-out: Biochemical Assay (μM) JAK2. The method, boiled down:
(§1)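 Kinase reactions ran in buffer of 50 mM HEPES pH 7.5 with 1 mM EGTA, 10 mM MgCl2, 2 mM DTT and 0.01% Tween-20, using recombinant enzyme. Phosphorylated ULight substrate was detected by TR-FRET, and compound effect expressed as % inhibition against vehicle.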

In the next assay the target is T2, Recombinant JAK3 (Homo sapiens, UniProt P52333).
T2 construct: purchased Carna Biosciences
T2 sequence (P52333 1-1124): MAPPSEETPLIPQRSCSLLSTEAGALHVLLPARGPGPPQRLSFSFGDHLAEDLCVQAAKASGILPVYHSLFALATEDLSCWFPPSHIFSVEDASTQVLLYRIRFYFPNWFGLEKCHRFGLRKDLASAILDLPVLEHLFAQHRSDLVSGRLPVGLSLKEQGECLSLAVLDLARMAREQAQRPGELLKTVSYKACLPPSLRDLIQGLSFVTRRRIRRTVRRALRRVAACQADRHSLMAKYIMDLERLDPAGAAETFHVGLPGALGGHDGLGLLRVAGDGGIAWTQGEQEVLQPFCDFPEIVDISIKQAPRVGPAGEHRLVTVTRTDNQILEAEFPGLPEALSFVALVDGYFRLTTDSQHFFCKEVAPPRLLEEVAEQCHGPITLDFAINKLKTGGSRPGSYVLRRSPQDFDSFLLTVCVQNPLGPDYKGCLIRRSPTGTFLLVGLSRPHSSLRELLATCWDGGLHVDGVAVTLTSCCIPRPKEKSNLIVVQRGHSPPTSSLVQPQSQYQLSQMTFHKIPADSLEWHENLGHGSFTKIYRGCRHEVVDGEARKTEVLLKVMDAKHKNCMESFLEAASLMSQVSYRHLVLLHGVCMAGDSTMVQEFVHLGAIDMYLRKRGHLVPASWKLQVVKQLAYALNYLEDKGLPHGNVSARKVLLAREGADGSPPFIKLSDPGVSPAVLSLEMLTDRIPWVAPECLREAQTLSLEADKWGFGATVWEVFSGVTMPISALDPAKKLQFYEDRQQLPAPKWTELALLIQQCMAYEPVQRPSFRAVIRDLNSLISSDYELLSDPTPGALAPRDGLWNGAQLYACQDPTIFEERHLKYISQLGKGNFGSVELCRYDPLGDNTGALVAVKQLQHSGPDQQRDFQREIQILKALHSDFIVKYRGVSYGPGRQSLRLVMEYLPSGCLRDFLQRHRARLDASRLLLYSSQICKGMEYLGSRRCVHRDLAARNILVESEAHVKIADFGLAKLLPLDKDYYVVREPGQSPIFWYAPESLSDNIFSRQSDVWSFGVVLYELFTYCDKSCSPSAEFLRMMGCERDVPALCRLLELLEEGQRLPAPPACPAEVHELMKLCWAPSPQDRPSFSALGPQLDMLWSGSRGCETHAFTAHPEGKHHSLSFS
Briefly: JAK biochemical assay (LANCE Ultra TR-FRET), JAK3. The following applies: recombinant JAK3, TR-FRET; read-out: Biochemical Assay (μM) JAK3. The method, boiled down:
as §1

For a further assay, the target named is T3, Recombinant TYK2 (Homo sapiens, UniProt P29597).
T3 construct: purchased Carna Biosciences
The assay is described as follows: JAK biochemical assay (LANCE Ultra TR-FRET), TYK2. The following applies: recombinant TYK2, TR-FRET; read-out: Biochemical Assay (μM) TYK2. The method, boiled down:
as §1
A general note: Time-resolved FRET reads energy transfer from a long-lived donor to a nearby acceptor.

The target in the next assay is T4, Recombinant JAK1 (Homo sapiens, UniProt P23458).
T4 construct: purchased Carna Biosciences
The assay is described as follows: JAK biochemical assay (LANCE Ultra TR-FRET), JAK1. The following applies: recombinant JAK1, TR-FRET; read-out: Biochemical Assay (μM) JAK1. Summed up: as §1

The test system of assay [1] is STAT3 phosphorylation by IL-6 in TF-1 cells. The assay is described as follows: JAK cellular assay: STAT3 phosphorylation by IL-6 in TF-1 cells (HTRF). It counts as cell-based. The following applies: IL-6 30 ng/ml, pSTAT3 HTRF, read-out: Cell Based Assay (μM) TF-1/IL-6/pSTAT3. On the procedure: (§2) TF-1 cells were starved overnight in OptiMEM medium with 0.5% charcoal stripped fetal bovine serum, 0.1 mM nonessential amino acids (NEAA), 1 mM sodium pyruvate and without phenol red in CO2 incubator maintained at 37° c. Next day, cells were resuspended in RPMI without phenol red and dispensed into a 96 well plate at a final cell density of 1,20,000 cells per well. Compounds were diluted in DMSO and added to cells and incubated for 30 minutes in CO2 incubator maintained at 37° c. Final DMSO concentration in cell based assay was 0.2%. Human recombinant cytokines, IL-6 (30 ng/ml) and GMCSF (5 ng/ml) were added to the plate containing cells along with compound and incubated for 20 minutes with gentle tapping at every 5 minutes once. Compound mediated effects on STAT3 and STAT5 phosphorylation was measured in the lysates prepared by using CISBIO pSTAT3 and pSTAT5 detection kits by HTRF method. Background signal obtained from cells which were not activated with cytokines, was subtracted from vehicle controls and compound treated wells.

The subject of assay [2] is STAT5 phosphorylation by GMCSF in TF-1 cells. Briefly: JAK cellular assay: STAT5 phosphorylation by GMCSF in TF-1 cells (HTRF). The following applies: TF-1 cells, GMCSF 5 ng/ml, pSTAT5 HTRF, read-out: Cell Based Assay (μM) TF-1/GMCSF/pSTAT5. Format: cell-based. On the procedure: as §2

T4 sequence (P23458 whole entry): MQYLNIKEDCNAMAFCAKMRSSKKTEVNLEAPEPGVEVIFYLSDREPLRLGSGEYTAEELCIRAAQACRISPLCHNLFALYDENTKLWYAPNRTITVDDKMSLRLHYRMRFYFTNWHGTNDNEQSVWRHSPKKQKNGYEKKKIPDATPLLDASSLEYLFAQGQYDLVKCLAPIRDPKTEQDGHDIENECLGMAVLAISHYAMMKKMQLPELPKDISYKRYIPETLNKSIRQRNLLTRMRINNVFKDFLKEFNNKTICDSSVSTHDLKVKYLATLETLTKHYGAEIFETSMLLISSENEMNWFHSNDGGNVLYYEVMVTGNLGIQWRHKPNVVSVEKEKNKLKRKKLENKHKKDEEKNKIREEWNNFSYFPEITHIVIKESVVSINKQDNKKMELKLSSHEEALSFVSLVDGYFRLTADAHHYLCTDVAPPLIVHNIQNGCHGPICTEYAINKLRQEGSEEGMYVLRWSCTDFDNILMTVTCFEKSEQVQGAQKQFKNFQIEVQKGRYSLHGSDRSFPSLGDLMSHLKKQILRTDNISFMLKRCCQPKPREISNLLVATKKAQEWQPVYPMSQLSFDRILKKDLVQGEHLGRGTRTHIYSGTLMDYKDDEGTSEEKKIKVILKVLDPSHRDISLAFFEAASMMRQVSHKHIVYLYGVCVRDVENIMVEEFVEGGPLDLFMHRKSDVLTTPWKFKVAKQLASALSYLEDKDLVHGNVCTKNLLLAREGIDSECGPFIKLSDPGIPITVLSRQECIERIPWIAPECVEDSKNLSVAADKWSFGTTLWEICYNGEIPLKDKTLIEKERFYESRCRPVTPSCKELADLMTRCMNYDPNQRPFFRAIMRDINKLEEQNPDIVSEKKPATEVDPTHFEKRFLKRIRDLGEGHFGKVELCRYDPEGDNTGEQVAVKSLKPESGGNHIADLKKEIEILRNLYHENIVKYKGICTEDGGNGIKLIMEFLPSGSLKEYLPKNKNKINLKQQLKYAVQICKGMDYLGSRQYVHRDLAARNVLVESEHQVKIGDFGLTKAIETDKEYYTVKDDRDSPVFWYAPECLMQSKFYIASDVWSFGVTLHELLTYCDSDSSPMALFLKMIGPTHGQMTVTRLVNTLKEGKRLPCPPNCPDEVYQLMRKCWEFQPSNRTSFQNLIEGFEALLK
T1 sequence (O60674 whole entry): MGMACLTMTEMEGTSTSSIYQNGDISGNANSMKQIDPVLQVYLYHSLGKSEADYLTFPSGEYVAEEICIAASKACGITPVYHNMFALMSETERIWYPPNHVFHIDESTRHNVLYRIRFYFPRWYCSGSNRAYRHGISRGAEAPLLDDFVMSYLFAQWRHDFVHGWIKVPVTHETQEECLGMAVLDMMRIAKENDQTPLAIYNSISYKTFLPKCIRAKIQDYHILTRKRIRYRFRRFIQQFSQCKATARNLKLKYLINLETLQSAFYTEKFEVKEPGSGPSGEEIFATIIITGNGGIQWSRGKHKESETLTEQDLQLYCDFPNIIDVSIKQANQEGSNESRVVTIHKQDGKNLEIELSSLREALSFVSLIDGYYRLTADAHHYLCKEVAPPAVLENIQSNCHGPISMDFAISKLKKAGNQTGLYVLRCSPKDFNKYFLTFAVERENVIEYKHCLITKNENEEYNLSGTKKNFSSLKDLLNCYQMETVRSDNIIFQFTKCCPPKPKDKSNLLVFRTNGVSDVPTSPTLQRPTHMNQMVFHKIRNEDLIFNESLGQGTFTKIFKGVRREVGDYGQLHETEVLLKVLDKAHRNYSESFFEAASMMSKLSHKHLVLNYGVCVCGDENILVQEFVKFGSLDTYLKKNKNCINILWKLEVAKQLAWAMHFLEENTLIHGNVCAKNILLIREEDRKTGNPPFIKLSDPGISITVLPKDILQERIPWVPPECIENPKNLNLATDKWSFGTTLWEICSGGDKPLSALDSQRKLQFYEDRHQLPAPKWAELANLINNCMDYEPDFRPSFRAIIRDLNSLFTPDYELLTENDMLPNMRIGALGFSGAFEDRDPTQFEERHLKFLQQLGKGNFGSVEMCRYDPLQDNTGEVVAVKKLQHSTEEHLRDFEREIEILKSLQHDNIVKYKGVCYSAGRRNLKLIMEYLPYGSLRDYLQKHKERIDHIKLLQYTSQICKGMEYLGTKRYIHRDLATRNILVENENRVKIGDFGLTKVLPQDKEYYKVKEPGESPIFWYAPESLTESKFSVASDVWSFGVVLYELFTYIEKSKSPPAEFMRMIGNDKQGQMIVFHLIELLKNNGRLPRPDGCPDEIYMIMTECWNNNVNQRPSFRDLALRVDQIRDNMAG
T3 sequence (P29597 whole entry): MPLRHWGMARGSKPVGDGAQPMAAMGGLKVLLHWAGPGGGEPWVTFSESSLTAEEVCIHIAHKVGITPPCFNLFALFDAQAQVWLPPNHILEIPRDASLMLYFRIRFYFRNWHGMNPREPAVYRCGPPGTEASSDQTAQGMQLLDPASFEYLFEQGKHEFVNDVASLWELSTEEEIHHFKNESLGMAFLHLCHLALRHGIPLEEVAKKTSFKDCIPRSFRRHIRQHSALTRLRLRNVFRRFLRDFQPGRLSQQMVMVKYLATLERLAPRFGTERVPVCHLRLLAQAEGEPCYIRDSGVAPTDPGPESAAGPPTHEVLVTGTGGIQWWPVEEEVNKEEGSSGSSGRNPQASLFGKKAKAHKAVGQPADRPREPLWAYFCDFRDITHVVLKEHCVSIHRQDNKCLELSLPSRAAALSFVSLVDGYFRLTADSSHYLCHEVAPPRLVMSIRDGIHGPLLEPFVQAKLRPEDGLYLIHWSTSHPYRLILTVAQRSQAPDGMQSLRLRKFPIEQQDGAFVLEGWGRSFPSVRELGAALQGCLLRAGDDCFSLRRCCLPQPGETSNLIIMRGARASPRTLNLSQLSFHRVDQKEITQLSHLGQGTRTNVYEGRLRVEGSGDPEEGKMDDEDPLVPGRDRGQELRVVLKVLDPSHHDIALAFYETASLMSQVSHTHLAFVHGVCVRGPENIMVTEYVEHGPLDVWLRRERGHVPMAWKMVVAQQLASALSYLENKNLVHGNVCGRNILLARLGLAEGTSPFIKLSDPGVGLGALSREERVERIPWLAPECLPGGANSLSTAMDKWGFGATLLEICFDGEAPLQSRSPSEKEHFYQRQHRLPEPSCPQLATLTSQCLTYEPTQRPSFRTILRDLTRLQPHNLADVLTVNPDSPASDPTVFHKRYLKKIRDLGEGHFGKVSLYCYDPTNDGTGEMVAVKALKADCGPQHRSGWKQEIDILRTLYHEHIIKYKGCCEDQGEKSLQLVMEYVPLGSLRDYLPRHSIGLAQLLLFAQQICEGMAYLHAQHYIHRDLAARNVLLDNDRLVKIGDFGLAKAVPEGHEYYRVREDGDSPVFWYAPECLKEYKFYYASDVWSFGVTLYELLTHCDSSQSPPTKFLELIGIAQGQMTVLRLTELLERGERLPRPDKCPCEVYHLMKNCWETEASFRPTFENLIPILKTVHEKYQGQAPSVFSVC

For the compound `N#CC1CCN(C(=O)n2cc(-c3ccnc4[nH]cnc34)cn2)C1` (stereo not drawn) [Example 1177, 1-(4-(3H-imidazo[4,5-b]pyridin-7-yl)-1H-pyrazole-1-carbonyl)pyrrolidine-3-carbonitrile], the IC50 at Recombinant JAK2 is under 0.5 µM; on Recombinant JAK3, over 1 µM; at Recombinant TYK2 it was over 0.5 µM; on Recombinant JAK1 it was over 1 µM; in assay [1] (Homo sapiens, TF-1, TF-1 cells), over 10 µM; in assay [2] (Homo sapiens), over 10 µM.
With `N#CC1CCN(C(=O)n2cc(-c3ccnc4[nH]cnc34)cn2)CC1` [Example 1067, 1-(4-(3H-imidazo[4,5-b]pyridin-7-yl)-1H-pyrazole-1-carbonyl)piperidine-4-carbonitrile], the IC50 on Recombinant JAK2 is over 0.5 µM; on Recombinant JAK3, over 0.5 µM; at Recombinant TYK2, over 10 µM; on Recombinant JAK1 it was over 1 µM; in assay [1] (Homo sapiens, TF-1, TF-1 cells), over 10 µM; in assay [2] (Homo sapiens), over 10 µM.
`N#CCc1cccc(-n2cc(-c3ccnc4[nH]cnc34)cn2)n1` [Example 1117, 2-(6-(4-(3H-imidazo[4,5-b]pyridin-7-yl)-1H-pyrazol-1-yl)pyridin-2-yl)acetonitrile]: the IC50 is over 1 µM in assay [1] (Homo sapiens, TF-1, TF-1 cells) and over 10 µM in assay [2] (Homo sapiens).
Regarding `CN(C)C(=O)CC(c1ccc(-n2cc(-c3ccnc4[nH]cnc34)cn2)nc1)C(F)(F)F` (stereo not drawn) [Example 1144, 3-(6-(4-(3H-imidazo[4,5-b]pyridin-7-yl)-1H-pyrazol-1-yl)pyridin-3-yl)-4,4,4-trifluoro-N,N-dimethylbutanamide], the IC50 at Recombinant JAK3 is over 0.1 µM; at Recombinant TYK2 it was over 1 µM; in assay [1] (Homo sapiens, TF-1, TF-1 cells), over 1 µM; in assay [2] (Homo sapiens), over 10 µM.
For the compound `CC(CC#N)NC(=O)n1cc(-c2ccnc3[nH]c(=O)[nH]c23)cn1` (stereo not drawn) [Example 1053, N-(1-cyanopropan-2-yl)-4-(2,3-dihydro-2-oxo-1H-imidazo[4,5-b]pyridin-7-yl)-1H-pyrazole-1-carboxamide], the IC50 at Recombinant JAK2 is under 1 µM; on Recombinant TYK2, over 1 µM; on Recombinant JAK1, under 1 µM; in assay [1] (TF-1 cells) it was over 10 µM; in assay [2], over 10 µM.
Consider `N#CC(c1ccc(-n2cc(-c3ccnc4[nH]cnc34)cn2)nc1)N1CCOCC1` (stereo not drawn) [Example 1112, 2-(6-(4-(3H-imidazo[4,5-b]pyridin-7-yl)-1H-pyrazol-1-yl)pyridin-3-yl)-2-morpholinoacetonitrile], for which the IC50 is over 0.5 µM at Recombinant JAK2; over 1 µM on Recombinant JAK3; over 1 µM on Recombinant TYK2; 10 µM in assay [1] (Homo sapiens, TF-1, TF-1 cells); over 10 µM in assay [2] (Homo sapiens).
For the compound `OC(c1ccc(-n2cc(-c3ccnc4[nH]cnc34)cn2)nc1)(C1CCOCC1)C(F)(F)F` (stereo not drawn) [Example 1134, 1-(6-(4-(3H-imidazo[4,5-b]pyridin-7-yl)-1H-pyrazol-1-yl)pyridin-3-yl)-2,2,2-trifluoro-1-(tetrahydro-2H-pyran-4-yl)ethanol], the IC50 at Recombinant JAK3 was under 0.1 µM; on Recombinant TYK2, over 1 µM; at Recombinant JAK1, under 0.1 µM; in assay [1] (Homo sapiens, TF-1, TF-1 cells) it was over 1 µM; in assay [2] (Homo sapiens), over 10 µM.
Turning to `FC(F)(F)Cc1ccc(-n2cc(-c3ccnc4[nH]cnc34)cn2)nc1` [Example 1084, 7-(1-(5-(2,2,2-trifluoroethyl)pyridin-2-yl)-1H-pyrazol-4-yl)-3H-imidazo[4,5-b]pyridine], the IC50 in assay [1] (Homo sapiens, TF-1, TF-1 cells) was over 1 µM; in assay [2] (Homo sapiens), over 10 µM.
As for `CS(=O)(=O)CCC(C#N)NC(=O)n1cc(-c2ccnc3[nH]cnc23)cn1` (stereo not drawn) [Example 1072, N-(1-cyano-3-(methylsulfonyl)propyl)-4-(3H-imidazo[4,5-b]pyridin-7-yl)-1H-pyrazole-1-carboxamide], the IC50 on Recombinant JAK2 is over 0.5 µM; at Recombinant JAK3, over 0.5 µM; on Recombinant JAK1 it was over 0.5 µM; in assay [1] (Homo sapiens, TF-1, TF-1 cells), over 10 µM; in assay [2] (Homo sapiens), over 10 µM.
Take `CC(N)CCC(c1ccc(-n2cc(-c3ccnc4[nH]cnc34)cn2)nc1)C(F)(F)F` (stereo not drawn) [Example 1224, 5-(6-(4-(3H-imidazo[4,5-b]pyridin-7-yl)-1H-pyrazol-1-yl)pyridin-3-yl)-6,6,6-trifluorohexan-2-amine, TFA salt]: the IC50 on Recombinant JAK3 was 0.001 µM; on Recombinant TYK2 it was over 0.1 µM; in assay [1] (Homo sapiens, TF-1, TF-1 cells), over 0.75 µM; in assay [2] (Homo sapiens) it was over 1 µM.
In the case of `CC1(C)CN(C(=O)Nc2ccc(-c3ccnc4[nH]c(=O)[nH]c34)cc2)C1` [Example 1007, N-(4-(2,3-dihydro-2-oxo-1H-imidazo[4,5-b]pyridin-7-yl)phenyl)-3,3-dimethylazetidine-1-carboxamide], the IC50 on Recombinant JAK2 was over 0.5 µM; at Recombinant JAK3, over 1 µM; at Recombinant TYK2 it was over 1 µM; at Recombinant JAK1 it was over 0.5 µM; in assay [1] (Homo sapiens, TF-1, TF-1 cells), over 10 µM.
Take `COCCC(C#N)NC(=O)n1cc(-c2ccnc3[nH]cnc23)cn1` (stereo not drawn) [Example 1071, N-(1-cyano-3-methoxypropyl)-4-(3H-imidazo[4,5-b]pyridin-7-yl)-1H-pyrazole-1-carboxamide]: the IC50 is over 0.5 µM on Recombinant JAK2; over 0.5 µM on Recombinant JAK3; over 0.5 µM at Recombinant TYK2; over 0.5 µM at Recombinant JAK1; over 10 µM in assay [1] (Homo sapiens, TF-1, TF-1 cells).
For `N#CCCC1CCN(C(=O)n2cc(-c3ccnc4[nH]c(=O)[nH]c34)cn2)C1` (stereo not drawn) [Example 1061, 3-(1-(4-(2-oxo-2,3-dihydro-1H-imidazo[4,5-b]pyridin-7-yl)-1H-pyrazole-1-carbonyl)pyrrolidin-3-yl)propanenitrile], the IC50 on Recombinant JAK3 is over 1 µM; at Recombinant TYK2, over 1 µM; at Recombinant JAK1, over 1 µM; in assay [1] (Homo sapiens, TF-1, TF-1 cells) it was over 10 µM; in assay [2] (Homo sapiens), over 10 µM.
On to `CN1CCN(CC(c2ccc(-n3cc(-c4ccnc5[nH]cnc45)cn3)nc2)C(F)(F)F)CC1` (stereo not drawn) [Example 1222, 7-(1-(5-(1,1,1-trifluoro-3-(4-methylpiperazin-1-yl)propan-2-yl)pyridin-2-yl)-1H-pyrazol-4-yl)-3H-imidazo[4,5-b]pyridine], for which the IC50 in assay [1] (Homo sapiens, TF-1, TF-1 cells) was over 0.8 µM; in assay [2] (Homo sapiens) it was over 1 µM.
Take `CC1(C)CN(C(=O)n2cc(-c3ccnc4[nH]c(=O)[nH]c34)cn2)C1` [Example 1037, 7-(1-(3,3-dimethylazetidine-1-carbonyl)-1H-pyrazol-4-yl)-1,3-dihydro-2H-imidazo[4,5-b]pyridin-2-one]: the IC50 on Recombinant JAK2 is over 1 µM; at Recombinant JAK3, over 1 µM; on Recombinant TYK2 it was over 0.5 µM; on Recombinant JAK1 it was over 0.5 µM; in assay [1] (Homo sapiens, TF-1, TF-1 cells), over 10 µM.
